# How the values were obtained:
# [1] = Time to emesis and survival after oral administration of pesticide with or without emetic (Example 27, Table 1); assay type: in vivo, Macaca fascicularis (Cynomolgus monkeys); details: for Animals in which emesis took place / Survival number after 14 days: 2 animals
# in vivo = details: cynomolgus monkey, po
# [2] = in vivo; cited from earlier work
# [3] = cited from earlier work
SMILES,"Animals in which emesis took place ([1]; Malathion only, 500 mg/kg)","Survival number after 14 days ([1]; Malathion only, 500 mg/kg)",LD50 (in vivo) [mg/kg],"Time to emesis ([1]; Parathion only, 200 mg/kg) [h]","Animals in which emesis took place ([1]; Parathion only, 200 mg/kg)","Survival number after 14 days ([1]; Parathion only, 200 mg/kg)",Side effects of known emetic [2],Stability in air [3]
"CCOC(=O)CC(SP(=S)(OC)OC)C(=O)OCC (stereo not drawn) [Malathion, S-[1,2-di(ethoxycarbonyl)ethyl] dimethyl phosphorothiolothionate]",1,0,270 to 400,,,,,
"CCOP(=S)(OCC)Oc1ccc([N+](=O)[O-])cc1 [Parathion, diethyl 4-nitrophenyl phosphorothionate]",,,~100,1,1,0,,
CN1CCc2cccc3c2[C@H]1Cc1ccc(O)c(O)c1-3 [apomorphine],,,,,,,may induce protracted vomiting and shock,"unstable in air, oxidising readily"

# — patent US4269820A, “Safeguarded toxic chemical compositions containing effective emesis-inducing S-triazolo-[1,5-α]pyrimidine derivatives” (priority 1977, dated 1981)
